≈ marks a conversion by molar mass, not a printed value. Where two headings read alike, the source gives them in different places.
What was measured:
[1] = target: KRAS (G12D)::SOS1 protein-protein interaction (Homo sapiens (Human), UniProt P01116, G12D); assay: KRAS::SOS1 AlphaScreen binding assay (KRAS G12D); conditions: GDP
Excerpt: This assay can be used to examine the potency with which compounds according to the invention binding to (mutated) KRAS inhibit the protein-protein interaction between SOS1 and (mutated) KRAS e.g. KRAS G12C, KRAS G12D. […] Low IC50 values in this assay setting are indicative of strong inhibition of protein-protein interaction between SOS1 and KRAS:
These assays measure the inhibitory effect of compounds on KRAS mutant protein-protein interactions using the Alpha Screen technology by Perkin Elmer.
The following (mutant) enzyme forms of KRAS and interacting proteins are used in these assays at the given concentrations:
KRAS (G12D) 1-169, N-terminal 6His-tag, C-terminal avi-tag (Xtal BioStructures, Inc.); final assay concentration 10 nM and SOS1 564-1049, N-terminal 229 GST-tag, TEV cleavage site (Viva Biotech Ltd); final assay concentration 5 nM;
Test compounds dissolved in DMSO are dispensed onto assay plates (Proxiplate 384 PLUS, white, PerkinElmer; 6008289) using an Access Labcyte Workstation with the Labcyte Echo 55x. For the chosen highest assay concentration of 100 μM, 150 nL of compound solution are transferred from a 10 mM DMSO compound stock solution. A series of eleven fivefold dilutions per compound are transferred to the assay plate, compound dilutions are tested in duplicates. DMSO are added as backfill to a total volume of 150 nL.
The assays run on a fully automated robotic system in a darkened room below 100 Lux. To 150 nl of compound dilution 10 μl of a mix including KRAS mutant protein, SOS1 (final assay concentrations see above) and GDP nucleotide (Sigma G7127; final assay concentration 10 μM) in assay buffer (1×PBS, 0.1% BSA, 0.05% Tween 20) are added into columns 1-24.
After 30 minutes incubation time 5 μl of Alpha Screen bead mix in assay buffer are added into columns 1-23. Bead mix consists of AlphaLISA Glutathione Acceptor Beads (PerkinElmer, Cat No AL109) and AlphaScreen Streptavidin Donor Beads (PerkinElmer Cat No 6760002) in assay buffer at a final assay concentration of 10 μg/mL each.
Plates are kept at room temperature in a darkened incubator. After an additional 60 minutes incubation time the signal is measured in a PerkinElmer Envision HTS Multilabel Reader using the AlphaScreen specs from PerkinElmer.
Each plate contains up to 16 wells of a negative control depending on the dilution procedure (platewise or serial) (DMSO instead of test compound; with KRAS mutant::SOS1 GOP mix and bead mix; column 23) and 16 wells of a positive control (DMSO instead of test compound; with KRAS mutant::SOS1 GOP mix w/o bead mix; column 24).
As internal control known inhibitors of KRAS mutant::SOS1 interaction can be measured on each compound plate.
IC50 values are calculated and analyzed with Boehringer Ingelheim's MEGALAB C50 application using a 4 parametric logistic model.
Tables of example compounds disclosed herein contain IC50 values determined using the above assays (see Table 43).

Ba/F3 cells KRAS G12D = assay: Ba/F3 proliferation assay (KRAS G12D); assay type: cell-based; conditions: Mus musculus, BaF3, 72 h, AlamarBlue viability
Procedure: (§1) Ba/F3 cells are ordered from DSMZ (ACC300, Lot17) and grown in RPMI-1640 (ATCC 30-2001)+10% FCS+10 ng/mL IL-3 at 37° C. in 5% […] atmosphere. Plasmids containing KRASG12 mutants (i.e. […], G12C, G12V) are obtained from GeneScript. To generate KRASG12-dependent Ba/F3 models, Ba/F3 cells are transduced with retroviruses containing vectors that harbor KRASG12 isoforms. Platinum-E cells (Cell Biolabs) are used for retrovirus packaging. Retrovirus is added to Ba/F3 cells. To ensure infection, 4 μg/mL polybrene is added and cells are spinfected. Infection efficiency is confirmed by measuring GFP-positive cells using a cell analyzer. Cells with an infection efficiency of 10% to 20% are further cultivated and puromycin selection with 1 μg/mL is initiated. As a control, parental Ba/F3 cells are used to show selection status. Selection is considered successful when parental Ba/F3 cells cultures died. To evaluate the transforming potential of KRASG12 mutations, the growth medium is no longer supplemented with IL-3. Ba/F3 cells harboring the empty vector are used as a control. Approximately ten days before conducting the experiments, puromycin is left out.
(§2) For proliferation assays, Ba/F3 cells are seeded into 384-well plates at 1.5×1 (M cells/60 μL in growth media (RPMI-1640+10% FCS). Compounds (10 mM stock in DMSO) are added at logarithmic dose series using the ECHO acoustic liquid handler system (Beckman Coulter), normalizing for added DMSO and including DMSO controls. All compound treatments are performed in technical duplicates. For the TO time point measurement, untreated cells are analyzed at the time of compound addition. Treated cells are incubated for 72 h at 37° C. with 5% CO2 and cell viability is measured in the PerkinElmer Envision Multimode Reader using AlamarBlue™ (ThermoFisher) viability stain. Viability (stated as percent of control) is defined as relative fluorescence units RFU of each well divided by the RFU of cells in DMSO controls. IC50 values are determined from viability measurements by non-linear regression using a four-parameter model.

Ba/F3 cells KRAS G12C = assay: Ba/F3 proliferation assay (KRAS G12C); assay type: cell-based; conditions: Mus musculus, BaF3, 72 h, AlamarBlue viability
Procedure: as §1, §2

Ba/F3 cells KRAS G12V = assay: Ba/F3 proliferation assay (KRAS G12V); assay type: cell-based; conditions: Mus musculus, BaF3, 72 h, AlamarBlue viability
Procedure: as §1, §2

[2] = Metabolic (microsomal) stability assay, human liver microsomes (HLM); assay type: in vitro ADME; conditions: 1 μM test compound, predicted clearance as percent of liver blood flow
Procedure: The metabolic degradation of the test compound is assayed at 37° C. with pooled liver microsomes (mouse (MLM), rat (RLM) or human (HLM)). The final incubation volume of 48 μL per time point contains TRIS buffer (pH 7.5; 0.1 M), magnesium chloride (6.5 mM), microsomal protein (0.5 mg/mL for mouse/rat, 1 mg/mL for human specimens) and the test compound at a final concentration of 1 μM. Following a short preincubation period at 37° C., the reactions are initiated by addition of 12 μL beta-nicotinamide adenine dinucleotide phosphate, reduced form (NADPH, 10 mM) and terminated by transferring an aliquot into solvent after different time points (0, 5, 15, 30, 60 min). Additionally, the NADPH-independent degradation is monitored in incubations without NADPH, terminated at the last time point by addition of acetonitrile. The quenched incubations are pelleted by centrifugation (4,000 rpm, 15 min). An aliquot of the supernatant is assayed by LC-MS/MS to quantify the concentration of parent compound in the individual samples.
In vitro intrinsic clearance (CLint,in vitro) is calculated from the time course of the disappearance of the test drug during the microsomal incubation. Each plot is fitted to the first-order elimination rate constant as C(t)=C0*exp(−ke*t), where C(t) and C0 are the concentration of unchanged test drug at incubation time t and that at preincubation and ke is the disappearance rate constant of the unchanged drug. Subsequently, CLint, in vitro (μL min^−1·amount protein) values are converted to predicted CLint,in vivo (mL min^−1·kg^−1) from incubation parameters according to the equation CLint, in vivo=CLint, in vitro×(incubation volume (mL)/amount protein (mg))×(amount protein (mg)/g liver tissue)×(liver weight/body wt.).
For better across species comparison the predicted clearance is expressed as percent of the liver blood flow [% QH] (mL min^−1·kg^−1) in the individual species. In general, high stability (corresponding to low % QH) of the compounds across species is desired.

[3] = Solubility measurement (DMSO solution precipitation method); assay type: physicochemical; conditions: aqueous buffer, kinetic from dmso stock
Procedure: A 10 mM DMSO stock solution of a test compound is used to determine its aq. solubility. The DMSO solution is diluted with an aq. medium (McIlvaine buffer with pH=4.5 or 6.8) to a final concentration of 250 μM. After 24 h of shaking at ambient temperature a potentially formed precipitate is removed by filtration. The concentration of the test compound in the filtrate is determined by LC-UV methods by calibrating the signal to the signal of a reference solution with complete dissolution of the test compound in acetonitrile/water (1:1) with known concentration.

[4] = McIlvaine buffer pH 4.5, 24 h, read-out: solubility pH 4.5
[5] = McIlvaine buffer pH 6.8, 24 h, read-out: solubility pH 6.8

Chain of KRAS (G12D)::SOS1 protein-protein interaction (P01116 other isoform, or with tags, fused parts or gaps G12D): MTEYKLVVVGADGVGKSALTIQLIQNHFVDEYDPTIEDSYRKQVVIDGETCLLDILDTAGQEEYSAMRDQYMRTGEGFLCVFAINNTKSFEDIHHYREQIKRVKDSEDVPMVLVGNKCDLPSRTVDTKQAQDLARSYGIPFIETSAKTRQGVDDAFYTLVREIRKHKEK

| SMILES | IC50 [1] | IC50 (Ba/F3 cells KRAS G12D) | IC50 (Ba/F3 cells KRAS G12C) | IC50 (Ba/F3 cells KRAS G12V) | HLM QH [2] | solubility at 24 h [3, 4] | solubility at 24 h [3, 5] |
| --- | --- | --- | --- | --- | --- | --- | --- |
| C[C@@H]1COC[C@H](n2c(=O)n(C)c3c(O[C@@H](C)[C@@H]4CC[C@H](C)N4C)nc(-c4onc5c4CCC[C@@]54CCCc5sc(N)c(C#N)c54)nc32)C1 [I-53] | 1 nM | 19 nM | 6 nM | 2 nM | 45% | > 153 µg/mL | 19 µg/mL (≈ 28.2 µM) |
| CO[C@@H]1C[C@@H]([C@H](C)Oc2nc(-c3onc4c3CCC[C@@]43CCCc4sc(N)c(C#N)c43)nc3c2n(C)c(=O)n3[C@H]2CO[C@@H](C)C2)N(C)C1 [I-49] | – | – | – | – | 35% | > 145 µg/mL | 56 µg/mL (≈ 83 µM) |
| CO[C@H]1CCN(C)[C@@H]1[C@H](C)Oc1nc(-c2onc3c2CCC[C@@]32CCCc3sc(N)c(C#N)c32)nc2c1n(C)c(=O)n2[C@H]1CO[C@@H](C)C1 [I-48] | 2 nM | 3 nM | 2 nM | 1 nM | 63% | > 148 µg/mL | 53 µg/mL (≈ 78.5 µM) |

Source: patent US20250019385A1, “SPIROCYCLIC ANNULATED 2-AMINO-3-CYANO THIOPHENES AND DERIVATIVES FOR THE TREATMENT OF CANCER” (Boehringer Ingelheim International GmbH, priority 2023, published 2025)
